Source: patent US10023557B2 (LifeSci Pharmaceuticals, Inc., priority 2015, dated 2018)

Legend:
[1] = molecular target: human plasma kallikrein (Homo sapiens (Human), UniProt P03952); test: In vitro enzyme inhibition of human plasma kallikrein (PFR-AMC cleavage); assay type: biochemical; details: Pro-Phe-Arg-AMC substrate, 37° C., read-out: hPK IC50
Summary of the method: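 Human plasma kallikrein and compound, diluted in 50 mM Tris-HCl pH 7.5, 150 mM NaCl, 0.01% Triton X-100, preincubated 5 min at 37 °C before PFR-AMC was added.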

[2] = molecular target: cellular kallikrein activity (Homo sapiens (Human), UniProt P03952); test: In vitro cellular assay (contact assay): kallikrein activity in ellagic acid-activated human plasma, Z-FR-2-AMC substrate; assay type: biochemical; details: human plasma activated with ellagic acid, 37° C.
Chain of cellular kallikrein activity (P03952 391-638): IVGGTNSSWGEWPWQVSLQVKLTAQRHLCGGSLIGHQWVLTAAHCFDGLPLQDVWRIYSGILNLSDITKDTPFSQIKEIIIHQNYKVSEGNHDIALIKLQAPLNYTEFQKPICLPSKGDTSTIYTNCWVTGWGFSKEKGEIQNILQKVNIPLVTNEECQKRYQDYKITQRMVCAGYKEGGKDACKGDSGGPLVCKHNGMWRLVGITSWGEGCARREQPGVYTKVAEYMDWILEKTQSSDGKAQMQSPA
Chain of cellular kallikrein activity (P03952 20-390 partner): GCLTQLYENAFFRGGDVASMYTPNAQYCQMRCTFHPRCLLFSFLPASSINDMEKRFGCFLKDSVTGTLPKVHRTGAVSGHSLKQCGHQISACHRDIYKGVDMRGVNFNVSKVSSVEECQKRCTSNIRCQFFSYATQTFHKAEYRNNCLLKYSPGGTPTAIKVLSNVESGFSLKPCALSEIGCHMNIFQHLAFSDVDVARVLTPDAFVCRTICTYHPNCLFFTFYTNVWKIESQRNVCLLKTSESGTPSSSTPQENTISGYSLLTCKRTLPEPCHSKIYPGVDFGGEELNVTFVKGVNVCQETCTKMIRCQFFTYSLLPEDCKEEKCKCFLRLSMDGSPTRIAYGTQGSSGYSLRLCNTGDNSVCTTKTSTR

Chain of human plasma kallikrein (P03952 391-638): as the sequence (P03952 391-638) above
Chain of human plasma kallikrein (P03952 20-390 partner): as the sequence (P03952 20-390 partner) above

| IC50 [1] | EC50 [2] | Compound |
| --- | --- | --- |
| < 100 nM | < 100 nM | Cc1nc(N)ccc1CNC(=O)c1ccnc(Cc2cc(CN)c3ncc(Cl)cc3c2)c1 [Example 253, N-((6-amino-2-methylpyridin-3-yl)methyl)-2-((8-(aminomethyl)-3-chloroquinolin-6-yl)methyl)isonicotinamide] |
| < 100 nM | 100 to 1000 nM | Cc1nc2ccc(Cc3cc(C(=O)NCc4ccc(N)nc4C)ccn3)cc2cc1Cl [Example 239, N-((6-amino-2-methylpyridin-3-yl)methyl)-2-((3-chloro-2-methylquinolin-6-yl)methyl)isonicotinamide] |
| < 100 nM | 100 to 1000 nM | Cc1ccn2cnc(CNC(=O)c3ccnc(Cc4ccc5ncc(Cl)cc5c4)c3)c2c1 [Example 156, 2-((3-chloroquinolin-6-yl)methyl)-N-((7-methylimidazo[1,5-a]pyridin-1-yl)methyl)isonicotinamide] |
| < 100 nM | < 100 nM | Cc1cc(N)nc(C)c1CNC(=O)c1cc(CN)nc(Cc2ccc3ncc(Cl)cc3c2)c1 [Example 211, N-((6-amino-2,4-dimethylpyridin-3-yl)methyl)-2-(aminomethyl)-6-((3-chloroquinolin-6-yl)methyl)isonicotinamide] |
| < 100 nM | < 100 nM | Cc1cc(N)nc(C)c1CNC(=O)c1cc(Cc2ccc3ncc(Cl)cc3c2)nc(C(C)(C)O)c1 [Example 210, N-((6-amino-2,4-dimethylpyridin-3-yl)methyl)-2-((3-chloroquinolin-6-yl)methyl)-6-(2-hydroxypropan-2-yl)isonicotinamide] |
| < 100 nM | 100 to 1000 nM | Cc1cc(CN)nc(C)c1CNC(=O)c1ccnc(Cc2ccc3ncc(Cl)cc3c2)c1 [Example 171, N-((6-(aminomethyl)-2,4-dimethylpyridin-3-yl)methyl)-2-((3-chloroquinolin-6-yl)methyl)isonicotinamide] |
| < 100 nM | < 100 nM | Cc1c(CNC(=O)c2ccnc(Cc3ccc4ncc(C(F)(F)F)cc4c3)c2)ccc2c(N)nccc12 [Example 184, N-((1-amino-5-methylisoquinolin-6-yl)methyl)-2-((3-(trifluoromethyl)quinolin-6-yl)methyl)isonicotinamide] |
| < 100 nM | 100 to 1000 nM | Cc1cc(N)nc(C)c1CNC(=O)c1ccnc(Cc2cc(-c3nnn[nH]3)c3ncc(Cl)cc3c2)c1 [Example 272, N-((6-amino-2,4-dimethylpyridin-3-yl)methyl)-2-((3-chloro-8-(1H-tetrazol-5-yl)quinolin-6-yl)methyl)isonicotinamide] |

Further lines, the compound ahead of its results:

| Compound | IC50 [1] | EC50 [2] |
| --- | --- | --- |
| Cc1nc2c(c(C)c1CNC(=O)c1ccnc(Cc3ccc4ncc(C(F)(F)F)cc4c3)c1)CCN2 [Example 176, N-((4,6-dimethyl-2,3-dihydro-1H-pyrrolo[2,3-b]pyridin-5-yl)methyl)-2-((3-(trifluoromethyl)quinolin-6-yl)methyl)isonicotinamide] | < 100 nM | 100 to 1000 nM |
| O=C(NCc1cnc2[nH]cc(Cl)c2c1)c1ccnc(Cc2ccc3ncc(C4CC4)cc3c2)c1 [Example 246, N-((3-chloro-1H-pyrrolo[2,3-b]pyridin-5-yl)methyl)-2-((3-cyclopropylquinolin-6-yl)methyl)isonicotinamide] | < 100 nM | 100 to 1000 nM |
| O=C(NCc1cc2c(Cl)c[nH]c2cc1F)c1ccnc(Cc2ccc3ncc(C(F)(F)F)cc3c2)c1 [Example 230, N-((3-chloro-6-fluoro-1H-indol-5-yl)methyl)-2-((3-(trifluoromethyl)quinolin-6-yl)methyl)isonicotinamide] | < 100 nM | 100 to 1000 nM |
| Cc1cc2c(N)nccc2cc1CNC(=O)c1ccnc(Cc2ccc3ncc(C(F)(F)F)cc3c2)c1 [Example 183, N-((1-amino-7-methylisoquinolin-6-yl)methyl)-2-((3-(trifluoromethyl)quinolin-6-yl)methyl)isonicotinamide] | < 100 nM | < 100 nM |
| Cc1cnc2c(S(N)(=O)=O)cc(Cc3cc(C(=O)NCc4ccc5[nH]cc(Cl)c5c4F)ccn3)cc2c1 [Example 290, N-((3-chloro-4-fluoro-1H-indol-5-yl)methyl)-2-((3-methyl-8-sulfamoylquinolin-6-yl)methyl)isonicotinamide] | < 100 nM | 100 to 1000 nM |
| CCc1cnc2ccc(Cc3cc(C(=O)NCc4ccc5c(N)nccc5c4)ccn3)cc2c1 [Example 283, N-((1-aminoisoquinolin-6-yl)methyl)-2-((3-ethylquinolin-6-yl)methyl)isonicotinamide] | < 100 nM | < 100 nM |
